The values that follow come from the supplement of paper PMC10331698.

± gives the standard deviation of the averaged measurements.

Common to all, as to experiment: level (log10 ratio to DMSO vehicle control); higher = higher biomarker level / cell amount than vehicle control
Common to all, as to conditions: in DMSO

Compound in assay [1]: NS(=O)(=O)C(F)(F)C(F)(F)C(F)(F)C(F)(F)C(F)(F)C(F)(F)F [Perfluorohexanesulfonamide]
As to the method: (§1)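 BioMAP Diversity Plus panel of 12 human primary cell co-culture systems (3C, 4H, LPS, SAg, BT, BF4T, BE3C, CASM3C, HDF3CGF, KF3CT, MyoF, Mphg). Compounds were added 1 h before stimulation and left for 24 h (MyoF 48 h; BT 72 h for soluble read-outs or 6 d for IgG). Biomarkers were read by ELISA, cytotoxicity by SRB, PBMC viability and proliferation by Alamar Blue. Each well value was divided by the mean of 8 DMSO control wells on the same plate and log10 transformed; duplicate blinded samples were tested at 4 concentrations.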

Compound in assay [2]: O=C(O)C=CC(F)(C(F)(F)F)C(F)(F)F [3-(Perfluoroisopropyl)-2-propenoic acid]
On the procedure: as §1

Compound in assay [3]: C=C(C)C(=O)OCCC(F)(F)C(F)(F)C(F)(F)C(F)(F)C(F)(F)C(F)(F)F [6:2 Fluorotelomer methacrylate]
As to the method: as §1

Compound in assay [4]: FC(F)(F)C(F)(F)C(F)(F)C(F)(F)C(F)(F)C(F)(F)CC1CO1 [3-(Perfluorohexyl)-1,2-epoxypropane]
On the procedure: as §1

Compound in a further assay: NC(=O)C(F)(F)C(F)(F)C(F)(F)C(F)(F)F [Nonafluoropentanamide]
As to the method: as §1

Compound in assay [5]: O=C(O)C(F)(F)C(F)(F)C(F)(F)C(F)(F)C(F)(F)C(F)(F)C(F)(F)C(F)(F)C(F)(F)C(F)F [11-H-Perfluoroundecanoic acid]
As to the method: as §1

Compound in assay [6]: O=S(=O)(F)C(F)(F)C(F)(F)C(F)(F)C(F)(F)C(F)(F)C(F)(F)C(F)(F)C(F)(F)F [Perfluorooctanesulfonyl fluoride]
On the procedure:
as §1

Take MyoF:CD106/VCAM-1: the “level (log10)” value in assay [1] (6700 nM) is -0.0105 ± 0.021; in assay [1] (20000 nM), -0.0165 ± 0.0021; in assay [1] (60000 nM), -0.0655 ± 0.0078; in assay [2] (6700 nM) it was 0.006 ± 0.011; in assay [2] (20000 nM), 0.0035 ± 0.00071; in assay [2] (60000 nM), -0.0035 ± 0.0035. For the same test system, the “level (log10)” value in assay [3] (6700 nM) is -0.005 ± 0.037; in assay [3] (20000 nM) it was -0.0005 ± 0.036; in assay [3] (60000 nM) it was -0.003 ± 0.0042; in assay [4] (6700 nM), 0.002 ± 0.013; in assay [4] (20000 nM), 0.013 ± 0.013; in assay [4] (60000 nM) it was 0.0205 ± 0.015. The “level (log10)” value with Nonafluoropentanamide (6700 nM) was -0.016 ± 0.0014; with Nonafluoropentanamide (20000 nM), -0.003; in the assay with Nonafluoropentanamide (60000 nM) it was 0.0055 ± 0.016; in assay [5] (6700 nM) it was 0.0035 ± 0.0078; in assay [5] (20000 nM), -0.152 ± 0.02; in assay [6] (6700 nM) it was -0.0105 ± 0.00071. The results for the “level (log10)” value in assay [6] (20000 nM) and in assay [6] (60000 nM) were -0.0105 ± 0.005 and -0.0185 ± 0.011, respectively.

MyoF:CXCL8/IL-8: the “level (log10)” value was 0.046 ± 0.068 in assay [1] (6700 nM); 0.024 ± 0.067 in assay [1] (20000 nM); 0.0085 ± 0.015 in assay [1] (60000 nM); -0.0445 ± 0.0064 in assay [2] (6700 nM); -0.032 ± 0.0028 in assay [2] (20000 nM); -0.0025 ± 0.019 in assay [2] (60000 nM). For the same test system, the “level (log10)” value in assay [3] (6700 nM) was -0.0055 ± 0.021; in assay [3] (20000 nM), 0.051 ± 0.0057; in assay [3] (60000 nM), 0.041 ± 0.0085; in assay [4] (6700 nM) it was -0.019; in assay [4] (20000 nM) it was -0.0205 ± 0.025; in assay [4] (60000 nM) it was -0.005 ± 0.031. In addition, the “level (log10)” value with Nonafluoropentanamide (6700 nM) was -0.0255 ± 0.00071; in the assay with Nonafluoropentanamide (20000 nM), -0.01 ± 0.024; with Nonafluoropentanamide (60000 nM), 0.0125 ± 0.015; in assay [5] (6700 nM), -0.0375 ± 0.03; in assay [5] (20000 nM), -0.071 ± 0.028; in assay [6] (6700 nM), 0.0095 ± 0.0021. The “level (log10)” value in assay [6] (20000 nM) was determined as 0.023 ± 0.0042; in assay [6] (60000 nM), 0.0325 ± 0.032.

Regarding MyoF:Collagen I, the “level (log10)” value in assay [1] (6700 nM) was 0.024 ± 0.013; in assay [1] (20000 nM), 0.0515 ± 0.013; in assay [1] (60000 nM) it was 0.0495 ± 0.022; in assay [2] (6700 nM), -0.0025 ± 0.012; in assay [2] (20000 nM) it was -0.002 ± 0.0042; in assay [2] (60000 nM) it was 0.002 ± 0.0085. In addition, the “level (log10)” value in assay [3] (6700 nM) is -0.0085 ± 0.0092; in assay [3] (20000 nM), -0.0095 ± 0.00071; in assay [3] (60000 nM), -0.009 ± 0.0099; in assay [4] (6700 nM), -0.011 ± 0.018; in assay [4] (20000 nM) it was -0.003 ± 0.0028; in assay [4] (60000 nM), 0.007 ± 0.02. Moreover, the “level (log10)” value in the assay with Nonafluoropentanamide (6700 nM) is -0.015 ± 0.025; in the assay with Nonafluoropentanamide (20000 nM), -0.0085 ± 0.047; in the assay with Nonafluoropentanamide (60000 nM), 0.001 ± 0.0071; in assay [5] (6700 nM), -0.0625 ± 0.0092; in assay [5] (20000 nM), -0.312 ± 0.023; in assay [6] (6700 nM) it was 0.0005 ± 0.0035. The “level (log10)” value in assay [6] (20000 nM) is -0.005 ± 0.0099; in assay [6] (60000 nM), 0.003 ± 0.016.

For the test system MyoF:Collagen III, the “level (log10)” value is 0.009 ± 0.0071 in assay [1] (6700 nM); 0.008 ± 0.0014 in assay [1] (20000 nM); 0.0025 ± 0.0035 in assay [1] (60000 nM); -0.0055 ± 0.022 in assay [2] (6700 nM); 0.003 ± 0.0071 in assay [2] (20000 nM); 0.0075 ± 0.005 in assay [2] (60000 nM). Moreover, the “level (log10)” value in assay [3] (6700 nM) is 0.008 ± 0.027; in assay [3] (20000 nM), 0.012 ± 0.0057; in assay [3] (60000 nM), 0.006 ± 0.017; in assay [4] (6700 nM), 0.007 ± 0.0028; in assay [4] (20000 nM), 0.003 ± 0.011; in assay [4] (60000 nM), 0.0065 ± 0.011. Moreover, the “level (log10)” value in the assay with Nonafluoropentanamide (6700 nM) is -0.029 ± 0.021; with Nonafluoropentanamide (20000 nM) it was -0.0335 ± 0.036; in the assay with Nonafluoropentanamide (60000 nM), -0.0145 ± 0.0092; in assay [5] (6700 nM) it was -0.0405 ± 0.005; in assay [5] (20000 nM), -0.475 ± 0.079; in assay [6] (6700 nM), 0.0095 ± 0.018. Moreover, the “level (log10)” value in assay [6] (20000 nM) was -0.0005 ± 0.03; in assay [6] (60000 nM) it was 0.009 ± 0.0099.

With MyoF:MMP-1, the “level (log10)” value in assay [1] (6700 nM) is -0.0285 ± 0.016; in assay [1] (20000 nM) it was -0.0215 ± 0.0035; in assay [1] (60000 nM), 0.0495 ± 0.025; in assay [2] (6700 nM), -0.0205 ± 0.021; in assay [2] (20000 nM), -0.031 ± 0.0014; in assay [2] (60000 nM) it was 0.006 ± 0.068. Besides, the “level (log10)” value in assay [3] (6700 nM) is 0.043 ± 0.0042; in assay [3] (20000 nM) it was 0.045 ± 0.04; in assay [3] (60000 nM), 0.018 ± 0.038; in assay [4] (6700 nM), -0.019 ± 0.0085; in assay [4] (20000 nM), -0.02 ± 0.017; in assay [4] (60000 nM), 0.017 ± 0.055. Also, the “level (log10)” value is -0.035 ± 0.037 with Nonafluoropentanamide (6700 nM); -0.02 ± 0.052 in the assay with Nonafluoropentanamide (20000 nM); -0.0055 ± 0.015 in the assay with Nonafluoropentanamide (60000 nM); -0.076 ± 0.021 in assay [5] (6700 nM); -0.027 ± 0.04 in assay [5] (20000 nM); -0.0275 ± 0.013 in assay [6] (6700 nM). The results for the “level (log10)” value in assay [6] (20000 nM) and in assay [6] (60000 nM) were -0.011 ± 0.0085 and -0.007 ± 0.047, respectively.

For the test system MyoF:PAI-I, the “level (log10)” value was found to be 0.021 ± 0.016 in assay [1] (6700 nM); 0.0285 ± 0.021 in assay [1] (20000 nM); 0.0575 ± 0.0078 in assay [1] (60000 nM); 0.0125 ± 0.0078 in assay [2] (6700 nM); 0.007 ± 0.0099 in assay [2] (20000 nM); 0.009 ± 0.0014 in assay [2] (60000 nM). Moreover, the “level (log10)” value in assay [3] (6700 nM) is -0.0165 ± 0.015; in assay [3] (20000 nM), -0.016 ± 0.0028; in assay [3] (60000 nM), -0.0165 ± 0.005; in assay [4] (6700 nM), 0.011 ± 0.0099; in assay [4] (20000 nM), -0.0035 ± 0.00071; in assay [4] (60000 nM), 0.0055 ± 0.0021. Moreover, the “level (log10)” value is 0.006 ± 0.011 with Nonafluoropentanamide (6700 nM); 0.012 ± 0.0057 in the assay with Nonafluoropentanamide (20000 nM); 0.021 ± 0.0014 in the assay with Nonafluoropentanamide (60000 nM); 0.0105 ± 0.012 in assay [5] (6700 nM); -0.013 ± 0.02 in assay [5] (20000 nM); -0.0045 ± 0.0035 in assay [6] (6700 nM). For the same test system, the “level (log10)” value in assay [6] (20000 nM) was -0.0015 ± 0.00071; in assay [6] (60000 nM), 0.006 ± 0.0099.

Take MyoF:SRB: the “level (log10)” value in assay [1] (6700 nM) was -0.0185 ± 0.0035; in assay [1] (20000 nM), -0.054 ± 0.033; in assay [1] (60000 nM), -0.105 ± 0.0092; in assay [2] (6700 nM), -0.005 ± 0.0014; in assay [2] (20000 nM) it was -0.0085 ± 0.0035; in assay [2] (60000 nM), 0 ± 0.018. In addition, the “level (log10)” value is -0.0025 ± 0.0092 in assay [3] (6700 nM); -0.0015 ± 0.005 in assay [3] (20000 nM); 0.0085 ± 0.012 in assay [3] (60000 nM); -0.007 ± 0.0057 in assay [4] (6700 nM); -0.005 ± 0.0057 in assay [4] (20000 nM); 0.0015 ± 0.011 in assay [4] (60000 nM). In addition, the “level (log10)” value with Nonafluoropentanamide (6700 nM) is -0.003 ± 0.0085; in the assay with Nonafluoropentanamide (20000 nM), 0.009 ± 0.0085; with Nonafluoropentanamide (60000 nM), 0.005 ± 0.016; in assay [5] (6700 nM), -0.001 ± 0.0014; in assay [5] (20000 nM), -0.086 ± 0.0028; in assay [6] (6700 nM) it was -0.0155 ± 0.012. The “level (log10)” value in assay [6] (20000 nM) was -0.0245 ± 0.025; in assay [6] (60000 nM), 0.004 ± 0.0085.
